Consider 1 molecule from US20110195041A1, “ANTIMICROBIAL COMPOSITIONS” (NDSU RESEARCH FOUNDATION, priority 2008, published 2011).

Molecules are shown by their SMILES. In brackets after ≈: the same amount, converted by molar mass.

Broadly, the MIC is the lowest concentration that inhibits growth of the organism. Lower therefore signals a more susceptible organism.

In one assay the test system is S. epidermidis. The experiment in a line: Minimum inhibitory concentration (MIC) of triclosan. Format: cell-based. The settings on record: Staphylococcus epidermidis; tryptic soy broth; range 0.2 to 25 μg/mL; complete growth inhibition. On the procedure:
(§1) The antimicrobial activity of triclosan toward the microorganisms of interest was determined by measuring the minimum inhibitor concentration (MIC). The protocol for determining the minimum inhibitory concentration (MIC) of antimicrobial agents in solution has been reported previously (described in Stafslien, S., et al., Biofouling, 2007. 23(1/2): 37-44.). Triclosan was serially diluted (2-fold) in marine broth, tryptic soy broth, and Guillard's F/2 medium for the MIC evaluation of C. lytica, S. epidermidis or E. coli, and N. incerta, respectively. The triclosan concentration range evaluated was from 0.2 μg/mL to 25 μg/mL.

In another assay the test system is C. lytica. Described as above. Format: cell-based. The following applies: Cellulophaga lytica; marine broth; range 0.2 to 25 μg/mL; complete growth inhibition. Here is the method: as §1

`Oc1cc(Cl)ccc1Oc1ccc(Cl)cc1Cl` [Triclosan, 5-chloro-2-(2,4-dichlorophenoxy)phenol]: the minimal inhibitory concentration (MIC) in the assay with S. epidermidis is at most 0.2 µg/mL; against C. lytica, 12.5 µg/mL (≈ 43.2 µM).
